Measurements reported in PMC12136037, “Type II kinase inhibitors that target Parkinson’s disease–associated LRRK2” (Science Advances, 2025).
Where two headings read alike, the source gives them in different places.

How the values were obtained:
Assay in all cases: DSF 100 kinase selectivity screen;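 for dTm: compound tested at 20 µM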
Format in all cases: binding
[1] = target: T1, ~100 representative kinases (Homo sapiens, UniProt P51955); conditions: protein NEK2; average of three replicates
T1 construct: Recombinant protein kinase domains with a concentration of 2 μM
T1 sequence (P51955 1-445): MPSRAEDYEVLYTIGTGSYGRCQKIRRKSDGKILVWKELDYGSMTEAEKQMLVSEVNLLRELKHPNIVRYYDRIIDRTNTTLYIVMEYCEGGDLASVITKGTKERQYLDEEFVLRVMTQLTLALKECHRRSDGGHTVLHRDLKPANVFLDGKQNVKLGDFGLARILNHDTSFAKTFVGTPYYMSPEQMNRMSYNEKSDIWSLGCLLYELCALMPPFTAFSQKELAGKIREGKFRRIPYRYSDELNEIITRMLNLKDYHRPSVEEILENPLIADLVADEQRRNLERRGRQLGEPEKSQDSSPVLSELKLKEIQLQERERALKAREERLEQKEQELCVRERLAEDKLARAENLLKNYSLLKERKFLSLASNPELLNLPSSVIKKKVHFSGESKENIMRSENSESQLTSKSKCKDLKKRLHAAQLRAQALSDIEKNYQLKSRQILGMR
Summary of the method: (§1)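 Each kinase domain, at 2 μM, is mixed with 20 μM test compound and SYPRO Orange in Hepes (20 mM, pH 7.5) with 500 mM NaCl. Temperature is then raised at 3°C/min and fluorescence-monitored unfolding yields the melting temperature change, ΔTm in degrees Celsius.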

[2] = target: T2, ~100 representative kinases (Homo sapiens, UniProt P51813); conditions: Protein BMX; average of three replicates
T2 construct: Recombinant protein kinase domains with a concentration of 2 μM
T2 sequence (P51813 1-675): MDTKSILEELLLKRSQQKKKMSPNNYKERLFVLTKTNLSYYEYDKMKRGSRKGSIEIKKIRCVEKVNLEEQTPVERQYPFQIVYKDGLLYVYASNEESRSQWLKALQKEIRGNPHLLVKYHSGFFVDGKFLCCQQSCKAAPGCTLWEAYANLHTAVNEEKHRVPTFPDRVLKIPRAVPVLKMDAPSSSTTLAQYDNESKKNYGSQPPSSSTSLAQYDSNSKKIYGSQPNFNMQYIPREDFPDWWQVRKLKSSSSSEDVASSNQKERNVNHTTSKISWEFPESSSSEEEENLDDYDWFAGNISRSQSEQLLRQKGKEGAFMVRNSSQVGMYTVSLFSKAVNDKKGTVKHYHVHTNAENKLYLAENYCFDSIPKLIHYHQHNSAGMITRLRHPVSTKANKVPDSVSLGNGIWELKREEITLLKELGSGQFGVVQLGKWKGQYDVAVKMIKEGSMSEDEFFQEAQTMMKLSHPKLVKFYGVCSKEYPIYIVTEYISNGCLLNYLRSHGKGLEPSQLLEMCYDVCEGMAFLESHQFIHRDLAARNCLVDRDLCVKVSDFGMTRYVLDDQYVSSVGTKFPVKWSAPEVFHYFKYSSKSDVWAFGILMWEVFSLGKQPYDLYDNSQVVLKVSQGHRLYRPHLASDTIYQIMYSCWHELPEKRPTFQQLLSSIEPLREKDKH
Summary of the method: as §1

[3] = target: T3, ~100 representative kinases (Homo sapiens, UniProt Q9H2G2); conditions: Protein SLK; DSF; average of three replicates
T3 construct: Recombinant protein kinase domains with a concentration of 2 μM
T3 sequence (Q9H2G2 whole entry, the tested form may be a part): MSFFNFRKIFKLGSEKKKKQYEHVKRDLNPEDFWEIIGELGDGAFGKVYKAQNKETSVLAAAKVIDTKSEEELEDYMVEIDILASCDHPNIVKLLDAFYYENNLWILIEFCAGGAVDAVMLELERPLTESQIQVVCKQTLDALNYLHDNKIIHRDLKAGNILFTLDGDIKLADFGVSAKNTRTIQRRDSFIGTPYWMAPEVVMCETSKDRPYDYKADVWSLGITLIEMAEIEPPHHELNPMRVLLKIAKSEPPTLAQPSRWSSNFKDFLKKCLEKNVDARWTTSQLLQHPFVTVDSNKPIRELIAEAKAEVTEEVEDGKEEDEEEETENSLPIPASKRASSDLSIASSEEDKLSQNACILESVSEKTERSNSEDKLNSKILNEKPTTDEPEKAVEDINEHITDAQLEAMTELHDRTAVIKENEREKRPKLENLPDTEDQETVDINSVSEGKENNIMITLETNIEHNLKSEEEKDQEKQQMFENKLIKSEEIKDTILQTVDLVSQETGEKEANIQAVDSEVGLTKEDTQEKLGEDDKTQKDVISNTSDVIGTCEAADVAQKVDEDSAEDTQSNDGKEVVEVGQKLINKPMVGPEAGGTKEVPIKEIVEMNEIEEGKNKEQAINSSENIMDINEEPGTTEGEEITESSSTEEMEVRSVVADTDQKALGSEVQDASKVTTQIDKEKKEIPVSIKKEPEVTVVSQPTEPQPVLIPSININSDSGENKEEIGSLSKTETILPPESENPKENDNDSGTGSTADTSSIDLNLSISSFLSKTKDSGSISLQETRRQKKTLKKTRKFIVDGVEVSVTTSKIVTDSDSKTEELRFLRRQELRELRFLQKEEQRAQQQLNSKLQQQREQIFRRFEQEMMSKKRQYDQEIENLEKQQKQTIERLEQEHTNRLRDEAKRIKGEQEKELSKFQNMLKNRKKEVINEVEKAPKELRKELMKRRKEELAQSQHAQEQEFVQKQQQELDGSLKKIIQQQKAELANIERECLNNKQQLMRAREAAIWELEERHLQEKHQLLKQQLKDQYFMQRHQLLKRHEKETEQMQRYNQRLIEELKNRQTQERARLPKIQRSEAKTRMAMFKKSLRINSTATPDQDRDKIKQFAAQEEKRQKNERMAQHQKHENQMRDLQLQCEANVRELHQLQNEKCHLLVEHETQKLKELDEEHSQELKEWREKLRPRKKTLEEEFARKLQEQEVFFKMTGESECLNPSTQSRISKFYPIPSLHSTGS
Summary of the method: as §1

[4] = target: T4, ~100 representative kinases (Homo sapiens, UniProt P33981); conditions: Protein TTK; DSF; average of three replicates
T4 construct: Recombinant protein kinase domains with a concentration of 2 μM
T4 sequence (P33981 1-857): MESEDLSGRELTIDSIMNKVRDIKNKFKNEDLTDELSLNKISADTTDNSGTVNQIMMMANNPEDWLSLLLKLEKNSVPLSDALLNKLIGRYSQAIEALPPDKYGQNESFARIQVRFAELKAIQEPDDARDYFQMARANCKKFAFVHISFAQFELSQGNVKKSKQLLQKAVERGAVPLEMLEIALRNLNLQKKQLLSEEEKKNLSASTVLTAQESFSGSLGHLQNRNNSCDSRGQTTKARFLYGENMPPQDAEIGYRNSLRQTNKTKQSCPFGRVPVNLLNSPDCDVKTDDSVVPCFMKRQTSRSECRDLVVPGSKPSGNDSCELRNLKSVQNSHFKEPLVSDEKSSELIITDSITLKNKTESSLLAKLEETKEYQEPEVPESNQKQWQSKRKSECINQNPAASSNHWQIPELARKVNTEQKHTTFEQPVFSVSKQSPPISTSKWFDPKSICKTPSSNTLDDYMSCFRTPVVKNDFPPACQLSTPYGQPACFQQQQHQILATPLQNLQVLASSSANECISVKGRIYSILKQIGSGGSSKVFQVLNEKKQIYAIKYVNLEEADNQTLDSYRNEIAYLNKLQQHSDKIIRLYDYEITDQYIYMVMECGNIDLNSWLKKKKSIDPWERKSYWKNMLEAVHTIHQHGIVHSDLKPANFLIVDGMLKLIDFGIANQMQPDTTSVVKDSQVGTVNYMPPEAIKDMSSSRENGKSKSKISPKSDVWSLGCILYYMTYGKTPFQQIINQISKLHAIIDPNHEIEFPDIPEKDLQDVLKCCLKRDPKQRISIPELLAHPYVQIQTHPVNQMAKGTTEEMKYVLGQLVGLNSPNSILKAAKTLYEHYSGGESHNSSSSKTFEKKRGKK
Summary of the method: as §1

[5] = target: T5, ~100 representative kinases (Homo sapiens, UniProt Q9Y2H1); conditions: Protein STK38L; DSF; average of three replicates
T5 construct: Recombinant protein kinase domains with a concentration of 2 μM
T5 sequence (Q9Y2H1 whole entry, the tested form may be a part): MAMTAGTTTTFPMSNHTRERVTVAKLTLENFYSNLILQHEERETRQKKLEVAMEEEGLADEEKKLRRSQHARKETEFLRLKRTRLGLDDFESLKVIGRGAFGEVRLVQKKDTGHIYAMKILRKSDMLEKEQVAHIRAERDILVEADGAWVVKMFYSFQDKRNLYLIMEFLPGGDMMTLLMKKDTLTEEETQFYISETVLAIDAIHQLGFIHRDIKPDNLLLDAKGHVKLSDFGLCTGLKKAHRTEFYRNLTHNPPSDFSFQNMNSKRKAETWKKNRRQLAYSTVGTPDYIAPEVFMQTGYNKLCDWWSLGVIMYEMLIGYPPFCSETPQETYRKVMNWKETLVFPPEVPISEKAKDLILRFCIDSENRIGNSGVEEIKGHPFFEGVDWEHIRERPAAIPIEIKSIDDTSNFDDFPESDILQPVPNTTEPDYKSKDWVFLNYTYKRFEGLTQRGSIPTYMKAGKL
Summary of the method: as §1

[6] = target: T6, ~100 representative kinases (Homo sapiens, UniProt O94768); conditions: Protein STK17B; DSF; average of three replicates
T6 construct: Recombinant protein kinase domains with a concentration of 2 μM
T6 sequence (O94768 1-372): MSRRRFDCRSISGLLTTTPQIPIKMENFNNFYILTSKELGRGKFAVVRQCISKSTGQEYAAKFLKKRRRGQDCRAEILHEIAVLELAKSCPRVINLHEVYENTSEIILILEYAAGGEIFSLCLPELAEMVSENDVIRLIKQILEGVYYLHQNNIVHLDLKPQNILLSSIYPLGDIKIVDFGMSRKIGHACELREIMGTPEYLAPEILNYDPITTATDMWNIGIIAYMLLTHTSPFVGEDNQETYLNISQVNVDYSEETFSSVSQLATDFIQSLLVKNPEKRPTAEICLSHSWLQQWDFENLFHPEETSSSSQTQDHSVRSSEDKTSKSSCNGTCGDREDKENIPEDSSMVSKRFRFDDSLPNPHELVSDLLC
Summary of the method: as §1

[7] = test system: ~100 representative kinases; conditions: for dTm: Protein BRD, average of three replicates
Summary of the method: as §1

[8] = number of kinases with thermal shift >5 K divided by total number of kinases screened
[9] = number of proteins of the DSF panel with dTm >5K
[10] = selectivity score: # >5K divided by # of proteins tested in the DSF panel

`Cc1ccc(-n2nc(C(C)(C)C)cc2NC(=O)Nc2cccc(-c3c[nH]c4nc(Cl)nc(N5CCOCC5)c34)c2)cc1` [Compound 30] gave a dTm [1] of -0.71 K, a dTm [2] of -1.99 K and a dTm [3] of 8.39 K. For the same compound, the dTm [4] was 2.15 K, the dTm [5] was -1.01 K and the dTm [6] was -0.13 K. For the same compound, the “S (5 K) / share of screened kinases stabilized” value ([7]; DSF selectivity panel, thermal shift >5 K) was 10%, the dTm [7] was -1.65 K and the “S(5K)” value [7, 8] was 0.10. The “# >5K” value [7, 9] was 10 and the “S(5K)” value [7, 10] was 0.099.
`CC(=O)N1CCN(c2nc(Cl)nc3[nH]cc(-c4cccc(NC(=O)Nc5cc(C(C)(C)C)nn5-c5ccc(C)cc5)c4)c23)CC1` [Compound 31] gave a dTm [1] of -1.71 K, a dTm [2] of -1.76 K and a dTm [3] of 9.23 K. It also gave a dTm [4] of 1.71 K, a dTm [5] of -0.73 K and a dTm [6] of 2.85 K. For the same compound, the dTm [7] was -3.84 K, the “S(5K)” value [7, 8] was 0.15 and the “# >5K” value [7, 9] was 15. The “S(5K)” value [7, 10] was 0.149.
`CCSc1nc(NC)c2c(-c3cccc(NC(=O)Nc4cc(C(C)(C)C)nn4-c4ccc(C)cc4)c3)c[nH]c2n1` [Compound 32] showed a dTm [1] of 0.87 K, a dTm [2] of -0.26 K and a dTm [3] of 5.13 K. For the same compound, the dTm [4] was 6.59 K, the dTm [5] was -0.75 K and the dTm [6] was 6.20 K. The dTm [7] was -0.35 K, the “number of kinases stabilized (>5 K)” value ([7]; Rebastinib 96 kinases screened, RN341 103 kinases screened) was 10 and the “S(5K)” value [7, 8] was 0.10. The “# >5K” value [7, 9] was 10 and the “S(5K)” value [7, 10] was 0.097.
`COc1cc(C(=O)N2CCOCC2)c(F)cc1Nc1nc(N(C)C)c2c(Cl)c[nH]c2n1` [Compound 36] showed a dTm [1] of -0.68 K, a dTm [2] of -0.34 K and a dTm [3] of -1.49 K. The dTm [4] was 10.39 K, the dTm [5] was -1.36 K and the dTm [6] was 10.98 K. For the same compound, the dTm [7] was -0.29 K, the “S(5K)” value [7, 8] was 0.14 and the “# >5K” value [7, 9] was 14. For the same compound, the “S(5K)” value [7, 10] was 0.139.
Compound `COc1cc(S(C)(=O)=O)ccc1Nc1nc(N(C)C)c2c(Cl)c[nH]c2n1` [Compound 37] has a dTm [1] of -1.77 K, a dTm [2] of -0.17 K and a dTm [3] of -0.88 K. The dTm [4] was 7.87 K, the dTm [5] was -1.21 K and the dTm [6] was 9.71 K. The dTm [7] was 0.52 K, the “S(5K)” value [7, 8] was 0.05 and the “# >5K” value [7, 9] was 5. The “S(5K)” value [7, 10] was 0.050.
`COc1cc2c(Oc3ccc(NC(=O)C4(C(=O)Nc5ccc(F)cc5)CC4)cc3F)ccnc2cc1OCCCN1CCOCC1` [Foretinib, reference compound] gave a dTm [1] of 1.91 K, a dTm [2] of 6.77 K and a dTm [3] of 8.07 K. For the same compound, the dTm [4] was 2.21 K, the dTm [5] was 0.47 K and the dTm [6] was 3.63 K. The “# >5K” value [7] was 30 and the “S(5K)” value [7] was 0.300.
`CCNc1nc(Nc2cc(F)c(C(=O)N3CCOCC3)cc2OC)ncc1C(F)(F)F` [GNE-7915] showed a dTm [1] of 0.39 K, a dTm [2] of -0.0422 K and a dTm [3] of 0.62 K. The dTm [4] was 6.53 K, the dTm [5] was 0.75 K and the dTm [6] was 1.02 K. For the same compound, the dTm [7] was -0.21 K, the “# >5K” value [7, 9] was 3 and the “S(5K)” value [7, 10] was 0.029.
Work on `C[C@@H]1CN(c2cc(-c3n[nH]c4ccc(OC5(C)CC5)cc34)ncn2)C[C@H](C)O1` [MLi2] yielded a dTm [1] of -0.21 K, a dTm [2] of -2.53 K and a dTm [3] of -1.23 K. It also gave a dTm [4] of 5.63 K, a dTm [5] of -0.08 K and a dTm [6] of 0.38 K. The dTm [7] was 0.12 K, the “# >5K” value [7, 9] was 2 and the “S(5K)” value [7, 10] was 0.019.
